Molecular target: T1, human melanopsin (Homo sapiens, UniProt Q9UHM6)
T1 sequence (Q9UHM6 1-384 limits assumed): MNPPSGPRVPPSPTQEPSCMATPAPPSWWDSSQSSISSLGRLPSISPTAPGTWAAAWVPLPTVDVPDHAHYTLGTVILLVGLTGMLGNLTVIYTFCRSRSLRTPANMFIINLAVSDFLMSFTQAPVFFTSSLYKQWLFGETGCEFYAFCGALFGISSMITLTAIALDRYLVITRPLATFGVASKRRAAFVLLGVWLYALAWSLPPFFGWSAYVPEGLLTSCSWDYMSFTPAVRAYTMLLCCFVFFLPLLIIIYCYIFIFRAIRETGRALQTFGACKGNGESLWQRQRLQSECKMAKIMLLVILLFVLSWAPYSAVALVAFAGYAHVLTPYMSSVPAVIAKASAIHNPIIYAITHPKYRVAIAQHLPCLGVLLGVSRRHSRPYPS
Experiment: GsX GloSensor assay with Gsα/i11
Type: cell-based
Design: the C-terminal amino acid residues (94, 140, 200, 214, 296, and 308 residues); expressed in transfected cells; host or cells: COS-1
Conditions: 16.7 μM AA92593; COS-1 cells
Description: Previous studies of human and mouse melanopsins reported that these melanopsins can activate not only Gq but Gs and Gi ([20], [21], [22]). Thus, we assessed the effect of AA92593 on Gsα WT or Gsα/i11 (with 11 C-terminal sequence of Giα) using the GsX GloSensor assay. In agreement with the promiscuous G protein-coupling of melanopsins, we observed light-dependent increase of GloSensor luminescence in COS-1 cells expressing Gsα or Gsα/i11 with human/mouse melanopsins (Fig. 1, G–J).
For GloSensor assay, opsins, GloSensor assay sensor (coded by pGlo-22F), and NanoBiT-tagged G proteins were transiently expressed in COS-1 cells (kindly provided from Dr David Farrens, Oregon Health and Science University) using PEI as described previously ([24], [52]). […] For GFP-fluorescence microscopy, a 35-mm cell culture dish (IWAKI) was transfected with 2 μg melanopsin-GFP plasmid and 8 μg PEI in 400 μl Opti-mem and 1.2 ml D-MEM. […]
The transfected COS-1 cells were incubated at 37 °C, 5% CO2 for 2 days, and the medium was aspirated and exchanged with 50 μl of HBSS (145 mM NaCl, 10 mM D-glucose, 5 mM KCl, 1 mM MgCl2, 1.7 mM CaCl2, 1.5 mM NaHCO3, 10 mM Hepes, pH 7.4), containing 33.3, 20, 10, 2, 0.2, 0.02, 0.002, or 0 μM AA92593, 0.5% dimetyl sulfoxide (DMSO), and 4% (vol/vol) GloSensor cAMP reagent stock solution. […] Luminescence was measured using GM-2000 or GM-3510 microplate reader (Promega). […]

Compound: COc1ccc(S(=O)(=O)N2CCCCC2)cc1C [AA92593]
- effect on melanopsin-induced cAMP responses via Gsα/i11: can suppress

Source: article PMC12051620, “Molecular basis underlying the specificity of an antagonist AA92593 for mammalian melanopsins” (The Journal of Biological Chemistry, 2025)
